These are literature values, as cited in patent publication US20040115749A1, “Cardiovascular disease and thrombotic risk diagnostic tests” (priority 2001, published 2004).

For the data set, the system named is ELISA kit for 13(S)-HODE (anti-13(S)-HODE specific antibody). The settings on record: commercial ELISA kit for 13(S)-HODE. (An ELISA detects its analyte on a solid surface through an enzyme-linked reagent.)

With `CCCCC[C@@H](O)/C=C/C=C\CCCCCCCC(=O)O` [13(R)-HODE], the cross-reactivity is listed as 10%.
